Laboratory results as given in paper PMC7932537, “Quantitative profiling of protease specificity” (PLoS Computational Biology, 2021).

Key:
MMP-2 [1] = target: T1, MMP-2 (Homo sapiens, UniProt P08253); assay: K(obs) of individual phage substrates (set of 1369); type: biochemical; settings: MMP2
T1 sequence (P08253 110-660): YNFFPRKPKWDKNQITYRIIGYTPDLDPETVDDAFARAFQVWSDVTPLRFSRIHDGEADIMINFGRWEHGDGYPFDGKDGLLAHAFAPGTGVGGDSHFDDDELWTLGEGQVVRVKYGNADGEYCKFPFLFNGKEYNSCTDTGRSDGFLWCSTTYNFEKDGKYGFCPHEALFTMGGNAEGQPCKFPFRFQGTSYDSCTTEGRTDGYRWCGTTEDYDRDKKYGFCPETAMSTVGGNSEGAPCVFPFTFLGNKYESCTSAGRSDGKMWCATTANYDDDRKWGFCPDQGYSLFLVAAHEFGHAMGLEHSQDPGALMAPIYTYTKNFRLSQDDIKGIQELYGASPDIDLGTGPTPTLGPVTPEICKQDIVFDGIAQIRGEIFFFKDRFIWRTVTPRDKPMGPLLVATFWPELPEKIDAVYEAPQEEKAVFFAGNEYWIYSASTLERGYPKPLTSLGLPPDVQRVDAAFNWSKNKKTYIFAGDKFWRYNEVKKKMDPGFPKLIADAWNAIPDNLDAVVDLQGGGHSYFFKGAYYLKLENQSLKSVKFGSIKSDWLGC

MMP-9 = MMP-9 (Homo sapiens, UniProt P14780); assay: as above; type: biochemical; settings: MMP9, individual phage substrates, set of 1369 peptides
Chain of MMP-9 (P14780 94-707): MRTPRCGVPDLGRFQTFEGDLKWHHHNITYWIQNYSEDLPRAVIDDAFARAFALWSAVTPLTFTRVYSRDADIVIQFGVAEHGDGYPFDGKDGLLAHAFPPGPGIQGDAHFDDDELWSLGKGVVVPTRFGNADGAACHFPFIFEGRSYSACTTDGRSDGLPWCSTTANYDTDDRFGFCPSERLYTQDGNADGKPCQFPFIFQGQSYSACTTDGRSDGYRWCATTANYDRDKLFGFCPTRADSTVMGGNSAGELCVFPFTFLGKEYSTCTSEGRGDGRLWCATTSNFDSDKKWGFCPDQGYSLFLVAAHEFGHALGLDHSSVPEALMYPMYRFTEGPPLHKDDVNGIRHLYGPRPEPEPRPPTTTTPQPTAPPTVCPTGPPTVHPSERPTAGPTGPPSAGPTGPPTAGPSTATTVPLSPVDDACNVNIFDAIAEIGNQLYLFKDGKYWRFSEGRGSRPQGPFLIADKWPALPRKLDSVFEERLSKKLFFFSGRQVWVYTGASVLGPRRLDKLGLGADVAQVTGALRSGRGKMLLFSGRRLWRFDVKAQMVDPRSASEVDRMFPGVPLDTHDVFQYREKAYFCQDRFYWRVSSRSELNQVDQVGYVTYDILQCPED

MMP-2 [2] = assay: Substrate phage display with NGS: relative probability (RP) of P3-P1' tetramer clusters; type: biochemical, human; settings: for avg_RP: MMP2 - no binning
[3] = individual phage substrates, set of 1369 peptides, cleavage position marked by '-' in the sequence
[4] = '-' marks the cleavage position (P1-P1')
[5] = individual phage substrate from the set of 1369 peptides, cleavage position marked by the dash in the sequence
[6] = dash in sequence marks cleavage position
[7] = average relative probability of the tetramer, redundant tetramers averaged out
[8] = average relative probability of the P3-P1' tetramer, redundant tetramers have been averaged out
[9] = average relative probability (RP) of the P3-P1' tetramer, redundant tetramers have been averaged out

AGLDL-LTASG
Kobs (MMP-2 [1]; [3]): 0 M⁻¹ s⁻¹
Kobs (MMP-9; [4]): 0 M⁻¹ s⁻¹

AIYRS-MTASG
Kobs (MMP-2 [1]; [3]): 3344.37 M⁻¹ s⁻¹
Kobs (MMP-9; [4]): 2916.17 M⁻¹ s⁻¹

AMAHS-LTASG
Kobs (MMP-2 [1]; [5]): 7015.91 M⁻¹ s⁻¹
Kobs (MMP-9; [6]): 2996.69 M⁻¹ s⁻¹

ANAMN-LTASG
Kobs (MMP-2 [1]; [3]): 1513.13 M⁻¹ s⁻¹
Kobs (MMP-9; [4]): 2761.81 M⁻¹ s⁻¹

APVYA-LTASG
Kobs (MMP-2 [1]; [3]): 6131.32 M⁻¹ s⁻¹
Kobs (MMP-9; [4]): 12792.1 M⁻¹ s⁻¹

ARAQH-ITASG
Kobs (MMP-2 [1]; [5]): 912.511 M⁻¹ s⁻¹
Kobs (MMP-9; [6]): 912.511 M⁻¹ s⁻¹

ARVGV-LTASG
Kobs (MMP-2 [1]; [5]): 84.609 M⁻¹ s⁻¹
Kobs (MMP-9; [6]): 0 M⁻¹ s⁻¹

ATASF-LTASG
Kobs (MMP-2 [1]; [3]): 5889.62 M⁻¹ s⁻¹
Kobs (MMP-9; [4]): 27.918 M⁻¹ s⁻¹

AVTYA-LTASG
Kobs (MMP-2 [1]; [3]): 1071.29 M⁻¹ s⁻¹
Kobs (MMP-9; [4]): 2837.92 M⁻¹ s⁻¹

CCAMG-LTASG
Kobs (MMP-2 [1]; [3]): 2218.08 M⁻¹ s⁻¹
Kobs (MMP-9; [4]): 4470.66 M⁻¹ s⁻¹

CCSLA-LTASG
Kobs (MMP-2 [1]; [5]): 551.253 M⁻¹ s⁻¹
Kobs (MMP-9; [6]): 386.839 M⁻¹ s⁻¹

CLLAS-LTASG
Kobs (MMP-2 [1]; [5]): 6396.07 M⁻¹ s⁻¹
Kobs (MMP-9; [6]): 0 M⁻¹ s⁻¹

DAPYF-LTASG
Kobs (MMP-2 [1]; [5]): 5667.28 M⁻¹ s⁻¹
Kobs (MMP-9; [6]): 8321.48 M⁻¹ s⁻¹

DILRH-LTASG
Kobs (MMP-2 [1]; [3]): 5889.62 M⁻¹ s⁻¹
Kobs (MMP-9; [4]): 2409.72 M⁻¹ s⁻¹

DLPHC-LTASG
Kobs (MMP-2 [1]; [5]): 619.843 M⁻¹ s⁻¹
Kobs (MMP-9; [6]): 355.093 M⁻¹ s⁻¹

DRIRH-LTASG
Kobs (MMP-2 [1]; [3]): 6688.74 M⁻¹ s⁻¹
Kobs (MMP-9; [4]): 3964.21 M⁻¹ s⁻¹

DVAFH-LTASG
Kobs (MMP-2 [1]; [3]): 1925.41 M⁻¹ s⁻¹
Kobs (MMP-9; [4]): 1283.43 M⁻¹ s⁻¹

DYARA-MTASG
Kobs (MMP-2 [1]; [5]): 4082.43 M⁻¹ s⁻¹
Kobs (MMP-9; [6]): 3438.54 M⁻¹ s⁻¹

EAVGN-LTASG
Kobs (MMP-2 [1]; [5]): 12792.1 M⁻¹ s⁻¹
Kobs (MMP-9; [6]): 585.336 M⁻¹ s⁻¹

EHNLP-LTASG
Kobs (MMP-2 [1]; [3]): 799.117 M⁻¹ s⁻¹
Kobs (MMP-9; [4]): 0 M⁻¹ s⁻¹

EKVML-MTASG
Kobs (MMP-2 [1]; [3]): 0 M⁻¹ s⁻¹
Kobs (MMP-9; [4]): 27.918 M⁻¹ s⁻¹

ELAWH-LTASG
Kobs (MMP-2 [1]; [5]): 1981.53 M⁻¹ s⁻¹
Kobs (MMP-9; [6]): 1373.05 M⁻¹ s⁻¹

ELPNF-LTASG
Kobs (MMP-2 [1]; [3]): 951.362 M⁻¹ s⁻¹
Kobs (MMP-9; [4]): 231.616 M⁻¹ s⁻¹

ELYAS-LTASG
Kobs (MMP-2 [1]; [3]): 12792.1 M⁻¹ s⁻¹
Kobs (MMP-9; [4]): 0 M⁻¹ s⁻¹

EPIYN-LTASG
Kobs (MMP-2 [1]; [3]): 619.843 M⁻¹ s⁻¹
Kobs (MMP-9; [4]): 2761.81 M⁻¹ s⁻¹

EQLAN-MTASG
Kobs (MMP-2 [1]; [3]): 7386.83 M⁻¹ s⁻¹
Kobs (MMP-9; [4]): 386.839 M⁻¹ s⁻¹

ERIWA-LTASG
Kobs (MMP-2 [1]; [5]): 1465.65 M⁻¹ s⁻¹
Kobs (MMP-9; [6]): 3344.37 M⁻¹ s⁻¹

ERLLH-LTASG
Kobs (MMP-2 [1]; [5]): 2837.92 M⁻¹ s⁻¹
Kobs (MMP-9; [6]): 231.616 M⁻¹ s⁻¹

ERPGW-LTASG
Kobs (MMP-2 [1]; [3]): 7386.83 M⁻¹ s⁻¹
Kobs (MMP-9; [4]): 3438.54 M⁻¹ s⁻¹

ESAQM-ITASG
Kobs (MMP-2 [1]; [3]): 142.481 M⁻¹ s⁻¹
Kobs (MMP-9; [4]): 0 M⁻¹ s⁻¹

ESPSF-LTASG
Kobs (MMP-2 [1]; [5]): 12792.1 M⁻¹ s⁻¹
Kobs (MMP-9; [6]): 3741.87 M⁻¹ s⁻¹

EVSQH-LTASG
Kobs (MMP-2 [1]; [3]): 690.17 M⁻¹ s⁻¹
Kobs (MMP-9; [4]): 551.253 M⁻¹ s⁻¹

EVTMW-LTASG
Kobs (MMP-2 [1]; [3]): 551.253 M⁻¹ s⁻¹
Kobs (MMP-9; [4]): 951.362 M⁻¹ s⁻¹

FAAYS-LTASG
Kobs (MMP-2 [1]; [3]): 5667.28 M⁻¹ s⁻¹
Kobs (MMP-9; [4]): 12792.1 M⁻¹ s⁻¹

FHIAH-LTASG
Kobs (MMP-2 [1]; [3]): 12792.1 M⁻¹ s⁻¹
Kobs (MMP-9; [4]): 3850.82 M⁻¹ s⁻¹

FIARA-LTASG
Kobs (MMP-2 [1]; [3]): 12792.1 M⁻¹ s⁻¹
Kobs (MMP-9; [4]): 12792.1 M⁻¹ s⁻¹

FMMGN-MTASG
Kobs (MMP-2 [1]; [3]): 12792.1 M⁻¹ s⁻¹
Kobs (MMP-9; [4]): 84.609 M⁻¹ s⁻¹

FMYSH-LTASG
Kobs (MMP-2 [1]; [5]): 7815.03 M⁻¹ s⁻¹
Kobs (MMP-9; [6]): 0 M⁻¹ s⁻¹

FRVEP-LTASG
Kobs (MMP-2 [1]; [5]): 323.705 M⁻¹ s⁻¹
Kobs (MMP-9; [6]): 261.974 M⁻¹ s⁻¹

FTPLN-MTASG
Kobs (MMP-2 [1]; [3]): 12792.1 M⁻¹ s⁻¹
Kobs (MMP-9; [4]): 10866.7 M⁻¹ s⁻¹

FTVHM-LTASG
Kobs (MMP-2 [1]; [5]): 1418.96 M⁻¹ s⁻¹
Kobs (MMP-9; [6]): 1513.13 M⁻¹ s⁻¹

GAAWG-LNTAS
Kobs (MMP-2 [1]; [5]): 201.585 M⁻¹ s⁻¹
Kobs (MMP-9; [6]): 836.403 M⁻¹ s⁻¹

GALDW-MSTAS
Kobs (MMP-2 [1]; [3]): 0 M⁻¹ s⁻¹
Kobs (MMP-9; [4]): 0 M⁻¹ s⁻¹

GAPAF-LKTAS
Kobs (MMP-2 [1]; [3]): 12792.1 M⁻¹ s⁻¹
Kobs (MMP-9; [4]): 10866.7 M⁻¹ s⁻¹

GAPDQ-LSTAS
Kobs (MMP-2 [1]; [5]): 142.481 M⁻¹ s⁻¹
Kobs (MMP-9; [6]): 323.705 M⁻¹ s⁻¹

GAPSS-LRTAS
Kobs (MMP-2 [1]; [3]): 12792.1 M⁻¹ s⁻¹
Kobs (MMP-9; [4]): 12792.1 M⁻¹ s⁻¹

GCAQE-LTTAS
Kobs (MMP-2 [1]; [5]): 113.394 M⁻¹ s⁻¹
Kobs (MMP-9; [6]): 27.918 M⁻¹ s⁻¹

GCLMA-LTTAS
Kobs (MMP-2 [1]; [3]): 6131.32 M⁻¹ s⁻¹
Kobs (MMP-9; [4]): 2837.92 M⁻¹ s⁻¹

GDVRH-IFTAS
Kobs (MMP-2 [1]; [5]): 231.616 M⁻¹ s⁻¹
Kobs (MMP-9; [6]): 261.974 M⁻¹ s⁻¹

GEAWH-LFTAS
Kobs (MMP-2 [1]; [5]): 292.668 M⁻¹ s⁻¹
Kobs (MMP-9; [6]): 355.093 M⁻¹ s⁻¹

WHGL
avg_RP (MMP-2 [2]; [7]): 0.5588

WHNM
avg_RP (MMP-2 [2]; [8]): 0

WLAL
avg_RP (MMP-2 [2]; [8]): 1.2175

WLNL
avg_RP (MMP-2 [2]; [8]): 0.1218

WLPI
avg_RP (MMP-2 [2]; [8]): 0.6666

WMNL
avg_RP (MMP-2 [2]; [7]): 0

WQGL
avg_RP (MMP-2 [2]; [7]): 12.939

WQNL
avg_RP (MMP-2 [2]; [8]): 6.2916

WRAF
avg_RP (MMP-2 [2]; [7]): 9.8395

WRAL
avg_RP (MMP-2 [2]; [7]): 22.4074

WRAY
avg_RP (MMP-2 [2]; [7]): 17.4833

WRGL
avg_RP (MMP-2 [2]; [7]): 23.375

WRHL
avg_RP (MMP-2 [2]; [8]): 0.4087

WRNL
avg_RP (MMP-2 [2]; [7]): 6.7583

WSGM
avg_RP (MMP-2 [2]; [8]): 18.3143

WSNL
avg_RP (MMP-2 [2]; [8]): 17.9326

WSSL
avg_RP (MMP-2 [2]; [7]): 16.6561

WSWL
avg_RP (MMP-2 [2]; [7]): 7.8776

WYGI
avg_RP (MMP-2 [2]; [7]): 0.0533

WYGM
avg_RP (MMP-2 [2]; [8]): 0.0531

YAAL [P3-P1' tetramer cluster]
relative_probability (MMP-2 [2]; tetramer clusters unique to the MMP-2 selectome, MMP-2 RP): 30.40

YAGL
avg_RP (MMP-2 [2]; [7]): 20.9112

YAHL
avg_RP (MMP-2 [2]; [7]): 18.7061

YAHM
avg_RP (MMP-2 [2]; [9]): 12.8446

YAHY
avg_RP (MMP-2 [2]; [9]): 10.8158

YANL
avg_RP (MMP-2 [2]; [8]): 27.7486

YANM
avg_RP (MMP-2 [2]; [8]): 22.6837

YASL
avg_RP (MMP-2 [2]; [7]): 26.9916

YASM
avg_RP (MMP-2 [2]; [8]): 24.1553

YAWM
avg_RP (MMP-2 [2]; [9]): 14.9473

YAYI
avg_RP (MMP-2 [2]; [8]): 1.7086

YFNL
avg_RP (MMP-2 [2]; [8]): 0

YFPL
avg_RP (MMP-2 [2]; [8]): 0.1432

YFSM
avg_RP (MMP-2 [2]; [8]): 0.0661

YGEL
avg_RP (MMP-2 [2]; [8]): 16.6627

YGHL
avg_RP (MMP-2 [2]; [8]): 11.3746

YGNL
avg_RP (MMP-2 [2]; [7]): 24.0019

YGNM
avg_RP (MMP-2 [2]; [8]): 13.8836

YHHL
avg_RP (MMP-2 [2]; [7]): 0

YLHL
avg_RP (MMP-2 [2]; [7]): 0.4077

YLNL
avg_RP (MMP-2 [2]; [9]): 0.3873

YLNY
avg_RP (MMP-2 [2]; [9]): 1.6791

YLPL
avg_RP (MMP-2 [2]; [9]): 2.3089

YLPM
avg_RP (MMP-2 [2]; [8]): 0.4306

YMGL
avg_RP (MMP-2 [2]; [8]): 0.0982

YMHI
avg_RP (MMP-2 [2]; [9]): 0

YMNI
avg_RP (MMP-2 [2]; [8]): 0

YMSL
avg_RP (MMP-2 [2]; [7]): 0.0725

YNHL
avg_RP (MMP-2 [2]; [7]): 3.693

YQGL
avg_RP (MMP-2 [2]; [7]): 4.3322

YQSL
avg_RP (MMP-2 [2]; [9]): 16.6669

YRAL
avg_RP (MMP-2 [2]; [9]): 8.2547

YRFM
avg_RP (MMP-2 [2]; [9]): 0

YRGL
avg_RP (MMP-2 [2]; [8]): 5.4447

YRHM
avg_RP (MMP-2 [2]; [8]): 0.3212

YRSL
avg_RP (MMP-2 [2]; [8]): 1.5061

YRSM
avg_RP (MMP-2 [2]; [9]): 5.2577

YSHL
avg_RP (MMP-2 [2]; [9]): 14.1084

YSNL
avg_RP (MMP-2 [2]; [8]): 25.2832

YYGL
avg_RP (MMP-2 [2]; [8]): 0.142
